# From article PMC7759686, “Pharmacokinetics and Immunological Effects of Romidepsin in Rhesus Macaques” (Frontiers in Immunology, 2020)
# What was measured:
# [1] = tested on: H3 and H4 histone acetylation in peripheral CD4+ and CD8+ T cells; assay: Histone acetylation assay (flow cytometry); type: in vivo, rhesus macaques (Macaca mulatta); details: 7 mg/m^2 4-h IV infusion
# Procedure: The efficacy of RMD treatment was assessed by monitoring histone acetylation of frozen PBMCs: at the baseline, 6 h postinfusion, and 1, 2, and 5 days postinfusion, using a flow-cytometrical method, as described ([41]). Briefly, separated PBMCs were stained for surface markers for 20 min with: CD3-APC-Cy7 (SP34-2), CD4-V500 (L200), CD8-PE (SK1), CD14-BV570 (M5E2) (BioLegend, San Diego, CA), CD28-PE-CF594 (CD28.2), CD69-BV421 (FN50), CD95-PE-Cy5 (DX2), PD-1-PE-Cy7 (EH12.2H7) (BioLegend); all antibodies were from BD Biosciences, unless otherwise stated. PBMCs were then lysed with PhosFlow Lyse/Fix buffer (BD Biosciences) for 30 min and permeabilized with Perm Buffer [0.4% Triton X-100 in PBA (Sigma)] for 10 min, followed by washing. Permeabilized PBMCs were stained with the following antibodies for intracellular markers: Ac-H4 (3HH4-2C2) (Active Motif, Carlsbad, CA, USA) and Ki-67-Alexa Flour 647 (BD Biosciences). Ac-H4 recognizes motifs on histones H3 and H4 and was conjugated to FITC using Zenon reagent kit (Invitrogen, Carlsbad, CA). Stained PBMCs were then washed, fixed with BD Stabilizing Fixative (BD Biosciences), and acquired with a LSR-II flow cytometer. Data were analyzed with FlowJo software.
# Cortisol ELISA in plasma = type: in vivo, rhesus macaques (Macaca mulatta); details: RMD-infused RMs vs saline controls (peak 6 h, decreasing from day 1); n = 3 per group
# Description: Cortisol ELISA. To assess the levels of stress associated with the different animal procedures used, frozen plasma was thawed, and dilutions of either 1:16 to 1:50 were used to measure the circulating cortisol levels with a cortisol ELISA kit (ENZO, Farmingdale, NY, USA), as per manufacturer instructions. The results were read at 405 nm on a Ultrospec 2100 Pro (Amersham Biosciences, Little Chalfont, UK) and results interpolated by Prism 8.4.3 (GraphPad Software, Inc., San Diego, CA) using 4 parameter logistic curve fitting.
# [2] = tested on: circulating lymphocytes, T cells, B cells and neutrophils; assay: Immune cell counts in blood (CBC, TruCount flow cytometry); type: in vivo, rhesus macaques (Macaca mulatta); details: for CD8+ T cells in blood: baseline 1,047; for CD4+ T cells in blood: baseline 2,518; for total circulating lymphocytes: baseline 5,050, 3 RMs, 7 mg/m^2
# Procedure: Figure 1 illustrates the sampling schedule. […] Intestinal biopsies were taken at 13 days prior to infusion; intestinal resections were taken at 30 days before infusion and 1 day postinfusion; LNs were collected at 30 and 13 days prior to infusion, 6 h postinfusion, and 1 and 7 days postinfusion. The samples collected during the first round of RMD treatment were used for immune population dynamics and functionality.
# Complete blood counts (CBCs) and serum chemistries were monitored in the collected samples from both the RMD-treated RMs and control RMs by either the Marshfield Laboratories (Cleveland, OH), IDEXX Reference Laboratories (IDEXX Laboratories, Inc, Westbrook, ME) or in house, using a ProCyte Hematology Analyzer (IDEXX Laboratories, Inc).
# Whole blood was stained to monitor the impact of RMD on the immune cell populations. TruCount was used to determine absolute counts of CD3^+, CD4^+, CD8^+ T cells and CD20^+ B cells as described ([51]–[53]). Fifty microliters of whole blood were stained with antibodies against CD3-V450, CD4-APC, CD20-APC-H7, and CD45-PerCP in TruCount tubes (BD Biosciences, Franklin Lakes, NJ, USA) with a set number of fluorescent beads as internal standards. CD8^+ T cell counts were assessed through the ratio of CD8^+ to CD3^+ T cells. Whole blood was also stained with combinations of the following fluorescently labeled antibodies: CD3-V450 (SP34-2), CD4-APC (L200), CD8-PE-CF594 (RPA-T8), CD14-PE-Cy7 (M5E2), CD38-FITC (AT-1) (Stemcell, Vancouver, BC, CA), CD20-APC-H7 (2H7), CD69-APC-Cy7 (FN50), CD95-FITC (DX2), CCR5-PE (3A9), Annexin V-FITC, HLA-DR-PE-Cy7 (L243), NKG2A-PE (Z199) (Beckman Coulter, Pasadena, CA), Strepavidin-Alexa Fluor 750 (Life Technologies, Carlsbad, CA), Biotin-CCR7 (eBioscience, San Diego, CA), LIVE/DEAD Fixable Blue Dead Cell Stain Kit (Thermo Fisher Scientific); all antibodies were from BD Biosciences unless otherwise noted. For Ki-67-PE (B56) intracellular staining, cells were fixed and permeabilized prior to Ki-67 staining. Data were acquired with a LSR-II flow cytometer (BD Biosciences) or Fortessa flow cytometer (BD Biosciences) and analyzed with FlowJo software 10.7.0 (Treestar, Ashland, OR), as described ([51], [54]).
# HIV = details: cited from earlier work
# Description: Because we measured the prodrug form of RMD, it is possible that the maintained concentrations are due to either greater distribution to the tissue compartments, reduced conversion of the RMD to the active, reduced form, trapping of RMD between the extracellular and interstitial spaces, or a combination of these. As ...
structure (smiles),measurement,setting,value
"C/C=C1\NC(=O)[C@H]2CSSCC/C=C/[C@H](CC(=O)N[C@H](C(C)C)C(=O)N2)OC(=O)[C@H](C(C)C)NC1=O [RMD, romidepsin]",time of return of histone acetylation to near baseline level,"[1]; CD4+ and CD8+ T cells, all RMs",≤ 5 days postinfusion
same,time of peak H3/H4 histone acetylation in blood CD4+ and CD8+ T cells,[1]; third RM (RM33),1 day postinfusion
same,time of peak H3/H4 histone acetylation in blood CD4+ and CD8+ T cells,[1]; two of three RMs,6 h postinfusion
same,plasma cortisol levels after infusion,Cortisol ELISA in plasma,remained elevated through 2 dpi
same,CD8+ T cells in blood,"[2]; 12 h postinfusion, p < 0.05",204 cells/μl
same,CD4+ T cells in blood,"[2]; 12 h postinfusion, p < 0.05",402 cells/μl
same,neutrophils in blood,"[2]; 12 h postinfusion, baseline 3,273, normal 6.2 ± 2.4 × 10^3, not significant","14,287 cells/μl"
same,total circulating lymphocytes,"[2]; 12 h postinfusion, p < 0.05","1,463 cells/μl"
same,CD8+ T cells in blood,"[2]; 1 day postinfusion, p < 0.05",178 cells/μl
same,CD4+ T cells in blood,"[2]; 1 day postinfusion, p < 0.05",496 cells/µl
same,neutrophils in blood,"[2]; 1 day postinfusion, baseline 3,273","9,123 cell/µl"
same,CD8+ T cells in blood,"[2]; 2 days postinfusion, p < 0.05",204 cells/μl
same,CD4+ T cells in blood,"[2]; 2 days postinfusion, p < 0.05",366 cells/μl
same,total circulating lymphocytes,"[2]; 2 days postinfusion, p < 0.05","1,753 cells/μl"
same,CD4+ T cells in blood,[2]; 5 days postinfusion (recovery),"1,305 cells/μl"
same,CD8+ T cells in blood,[2]; 5 days postinfusion,634 cells/μl
same,neutrophils in blood,"[2]; 5 days postinfusion, baseline 3,273","2,427 cells/μl"
same,CD8+ T cells in blood,[2]; 7 days postinfusion (near full recovery),741 cells/μl
same,B cells (CD3−CD20+) in blood,"[2]; RMD treated RMs, no change in saline control group",declined
same,concentration found to readily reactivate HIV in vitro,HIV,5 nM
